This is an account of results in US11739100B2, “2,3-dihydro-1h-imidazo{1,2-a}pyrimidin-5-one and this 1,2,3,4-tetrahydropyrimido{1,2-a}pyrimidin-6-one derivatives comprising a substituted morpholine, preparation thereof and pharmaceutical use thereof” (SANOFI, priority 2012, dated 2023).

The structures appear in SMILES notation.

T1 sequence (Q8NEB9 whole entry): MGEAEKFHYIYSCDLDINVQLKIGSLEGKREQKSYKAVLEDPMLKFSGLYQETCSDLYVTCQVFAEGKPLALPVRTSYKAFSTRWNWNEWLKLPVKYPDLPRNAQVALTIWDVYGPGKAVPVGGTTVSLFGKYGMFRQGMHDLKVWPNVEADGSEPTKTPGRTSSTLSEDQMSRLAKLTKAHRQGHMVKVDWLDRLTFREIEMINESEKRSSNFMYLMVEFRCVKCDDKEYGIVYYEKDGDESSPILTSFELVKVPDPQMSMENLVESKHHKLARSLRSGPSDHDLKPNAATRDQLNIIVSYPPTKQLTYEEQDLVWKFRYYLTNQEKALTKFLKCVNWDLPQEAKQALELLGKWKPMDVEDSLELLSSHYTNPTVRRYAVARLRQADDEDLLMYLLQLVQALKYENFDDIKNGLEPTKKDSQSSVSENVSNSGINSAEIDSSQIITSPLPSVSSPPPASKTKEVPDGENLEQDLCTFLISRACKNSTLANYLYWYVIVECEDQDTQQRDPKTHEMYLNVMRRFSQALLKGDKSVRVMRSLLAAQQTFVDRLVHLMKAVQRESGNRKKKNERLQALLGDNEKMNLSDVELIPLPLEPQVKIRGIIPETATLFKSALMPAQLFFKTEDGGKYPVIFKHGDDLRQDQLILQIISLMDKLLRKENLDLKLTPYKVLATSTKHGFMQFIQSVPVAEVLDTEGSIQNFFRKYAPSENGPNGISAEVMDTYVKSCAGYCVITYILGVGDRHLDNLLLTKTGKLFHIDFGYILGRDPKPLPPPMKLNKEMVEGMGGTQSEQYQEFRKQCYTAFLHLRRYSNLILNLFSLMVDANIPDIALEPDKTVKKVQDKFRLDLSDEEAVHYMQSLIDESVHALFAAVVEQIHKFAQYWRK

This assay addresses T1, recombinant Vps34 (Homo sapiens, UniProt Q8NEB9).
T1 construct: purchased Invitrogen PV5126
The assay is described as follows: Phosphorylation of phosphatidylinositol (PI) by Vps34 in vitro, ADP detected by TR-FRET (HTRF Transcreener ADP). The conditions noted are these: 10 μM ATP, 55 μg/ml PI, approximately 3 nM Vps34, 1 hour at ambient temperature; absolute IC50, mean of two independent experiments; read-out: IC50 activity range. The format is biochemical. On the technique in general: Time-resolved FRET reads energy transfer from a long-lived donor to a nearby acceptor.
For the compound `C[C@@H]1COCCN1c1cc(=O)n2c(n1)N(CC1CCCO1)[C@H](C(F)(F)F)CC2` (single isomer, unassigned) [Example 136], the IC50 is below 10 nM.

As to `C[C@@H]1COCCN1c1cc(=O)n2c(n1)N(CC1CCCCO1)[C@H](C(F)(F)F)CC2` (single isomer, unassigned) [Example 138], the IC50 is below 10 nM.

As for `CCC1CN(c2cc(=O)n3c(n2)N(CC(=O)c2ccccn2)[C@H](C(F)(F)F)CC3)CCO1` (single isomer, unassigned) [Example 172], the IC50 is above 100 nM.

On to `CC1CN(c2cc(=O)n3c(n2)N(CC(=O)c2ccccn2)[C@H](C(F)(F)F)CC3)CCO1` (single isomer, unassigned) [Example 174], for which the concentration for half-maximal inhibition (IC50) was 10 to 100 nM.

For the compound `CC1CN(c2cc(=O)n3c(n2)N(CC(=O)c2ccccn2)[C@H](C(F)(F)F)CC3)CCO1` (single isomer, unassigned) [Example 175], the IC50 was above 100 nM.

For the compound `O=c1cc(N2CCOCC2CO)nc2n1CC[C@@H](C(F)(F)F)N2c1cc(F)cc(F)c1` (single isomer, unassigned) [Example 176], the IC50 was above 100 nM.

For the compound `O=c1cc(N2CCOCC2CO)nc2n1CC[C@@H](C(F)(F)F)N2Cc1ccc(Cl)s1` (single isomer, unassigned) [Example 177], the IC50 was in the range of 10 to 100 nM.

With `CC1CN(c2cc(=O)n3c(n2)N(Cc2ccccc2)[C@H](C(F)(F)F)CC3)CCO1` (single isomer, unassigned) [Example 191], the IC50 lay within 10 to 100 nM.

Turning to `O=c1cc(N2CCOC(CF)C2)nc2n1CC[C@@H](C(F)(F)F)N2Cc1ccccc1` (single isomer, unassigned) [Example 194], the IC50 was above 100 nM.

Consider `C[C@@H]1COCCN1c1cc(=O)n2c(n1)N(CC(O)c1cccnc1)[C@H](C(F)(F)F)CC2` (single isomer, unassigned) [Example 209], for which the IC50 is below 10 nM.

Turning to `C[C@@H]1COCCN1c1cc(=O)n2c(n1)N(CC(O)c1ccccn1)[C@H](C(F)(F)F)CC2` (single isomer, unassigned) [Example 212], the IC50 was below 10 nM.

As to `CCC(C)N1c2nc(N3CCOC[C@H]3C)cc(=O)n2CC[C@H]1C(F)(F)F` (single isomer, unassigned) [Example 284], the concentration for half-maximal inhibition (IC50) was below 10 nM.

Turning to `COC(CN1c2nc(N3CCOC[C@H]3C)cc(=O)n2CC[C@H]1C(F)(F)F)C(C)C` (single isomer, unassigned) [Example 288], the IC50 is below 10 nM.

As to `C[C@@H]1COCCN1c1cc(=O)n2c(n1)N(C/C(=N\O)C1CC1)[C@H](C(F)(F)F)CC2` (single isomer, unassigned) [Example 304], the IC50 was below 10 nM.

In the case of `C[C@@H]1COCCN1c1cc(=O)n2c(n1)N(C/C(=N/O)C1CC1)[C@H](C(F)(F)F)CC2` (single isomer, unassigned) [Example 305], the 50% inhibitory concentration (IC50) is below 10 nM.

With `CO/N=C(/CN1c2nc(N3CCOC[C@H]3C)cc(=O)n2CC[C@H]1C(F)(F)F)C1CC1` (single isomer, unassigned) [Example 306], the IC50 was below 10 nM.

For the compound `CO/N=C(\CN1c2nc(N3CCOC[C@H]3C)cc(=O)n2CC[C@H]1C(F)(F)F)C1CC1` (single isomer, unassigned) [Example 307], the IC50 was below 10 nM.

For `C[C@@H]1COCCN1c1cc(=O)n2c(n1)N(CC1(C3CC3)CCO1)[C@H](C(F)(F)F)CC2` (single isomer, unassigned) [Example 308], the IC50 was below 10 nM.

As for `CC1CN(c2nc3n(c(=O)c2F)CC[C@@H](C(F)(F)F)N3CC(=O)C2CC2)CCO1` (single isomer, unassigned) [Example 322], the IC50 is 10 to 100 nM.

As to `CC(C)C(F)CN1c2nc(N3CCOC[C@H]3C)cc(=O)n2CC[C@H]1C(F)(F)F` (single isomer, unassigned) [Example 323], the IC50 is below 10 nM.

Take `C[C@@H]1COCCN1c1cc(=O)n2c(n1)N(CC(F)C1CC1)[C@H](C(F)(F)F)CC2` (single isomer, unassigned) [Example 325]: the IC50 was below 10 nM.

As to `CC(C)C(F)CN1c2nc(N3CCOC[C@H]3C)c(F)c(=O)n2CC[C@H]1C(F)(F)F` (single isomer, unassigned) [Example 328], the IC50 was below 10 nM.

In the case of `C[C@@H]1COCCN1c1nc2n(c(=O)c1F)CC[C@@H](C(F)(F)F)N2CC(F)C1CC1` (single isomer, unassigned) [Example 331], the IC50 is below 10 nM.

For `CC1COCC(C)N1c1cc(=O)n2c(n1)N(Cc1ccc(Cl)s1)[C@H](C(F)(F)F)CC2` (stereo in doubt) [Example 152, (S)-9-(5-Chloro-thiophen-2-ylmethyl)-2-((3S,5S)-3,5-dimethylmorpholin-4-yl)-8-trifluoromethyl-6,7,8,9-tetrahydro-pyrimido[1,2-a]-pyrimidin-4-one], the IC50 was below 10 nM.

Consider `CC1COCC(C)N1c1cc(=O)n2c(n1)N(CC(=O)c1ccccc1)[C@H](C(F)(F)F)CC2` (stereo in doubt) [Example 153, (S)-2-((3S,5S)-3,5-Dimethylmorpholin-4-yl)-9-(2-oxo-2-phenyl-ethyl)-8-trifluoromethyl-6,7,8,9-tetrahydro-pyrimido[1,2-a]-pyrimidin-4-one], for which the IC50 is below 10 nM.

Turning to `C[C@@H]1COCCN1c1cc(=O)n2c(n1)N(CC(=O)c1ccccn1)[C@H](C(F)(F)F)CC2` [Example 1, (S)-2-((R)-3-Methyl-morpholin-4-yl)-9-(2-oxo-2-pyridin-2-yl-ethyl)-8-trifluoromethyl-6,7,8,9-tetrahydro-pyrimido[1,2-a]-pyrimidin-4-one], the IC50 is below 10 nM.

As to `Cc1nc(CN2c3nc(N4CCOC[C@H]4C)cc(=O)n3CC[C@H]2C(F)(F)F)no1` [Example 2, (S)-2-((R)-3-Methyl-morpholin-4-yl)-9-(5-methyl-[1,2,4]oxadiazol-3-yl-methyl)-8-trifluoromethyl-6,7,8,9-tetrahydro-pyrimido[1,2-a]-pyrimidin-4-one], the IC50 is below 10 nM.

With `CC(C)C(=O)CN1c2nc(N3CCOC[C@H]3C)c(F)c(=O)n2CC[C@H]1C(F)(F)F` [Example 4, (S)-3-Fluoro-2-((R)-3-methylmorpholin-4-yl)-9-(3-methyl-2-oxo-butyl)-8-trifluoromethyl-6,7,8,9-tetrahydro-pyrimido[1,2-a]-pyrimidin-4-one], the IC50 was below 10 nM.

For the compound `C[C@@H]1COCCN1c1nc2n(c(=O)c1F)CC[C@@H](C(F)(F)F)N2Cc1ccnc(F)c1` [Example 5, (S)-3-Fluoro-9-(2-fluoropyridin-4-yl-methyl)-2-((R)-3-methylmorpholin-4-yl)-8-trifluoromethyl-6,7,8,9-tetrahydro-pyrimido[1,2-a]-pyrimidin-4-one], the IC50 was below 10 nM.

Regarding `C[C@@H]1COCCN1c1nc2n(c(=O)c1F)CC[C@@H](C(F)(F)F)N2CC(=O)C1CC1` [Example 6, (S)-9-(2-Cyclopropyl-2-oxoethyl)-3-fluoro-2-((R)-3-methyl-morpholin-4-yl)-8-trifluoromethyl-6,7,8,9-tetrahydro-pyrimido[1,2-a]-pyrimidin-4-one], the IC50 is below 10 nM.

On to `CC(=O)CN1c2nc(N3CCOC[C@H]3C)c(F)c(=O)n2CC[C@H]1C(F)(F)F` [Example 7, (S)-3-Fluoro-2-((R)-3-methylmorpholin-4-yl)-9-(2-oxopropyl)-8-trifluoromethyl-6,7,8,9-tetrahydro-pyrimido[1,2-a]-pyrimidin-4-one], for which the IC50 is below 10 nM.

Consider `C[C@H](O)CN1c2nc(N3CCOC[C@H]3C)c(F)c(=O)n2CC[C@H]1C(F)(F)F` [Example 8, (S)-3-Fluoro-9-((S)-2-hydroxypropyl)-2-((R)-3-methylmorpholin-4-yl)-8-trifluoromethyl-6,7,8,9-tetrahydro-pyrimido[1,2-a]-pyrimidin-4-one], for which the IC50 is below 10 nM.

With `C[C@@H]1COC[C@@H](C)N1c1cc(=O)n2c(n1)N(Cc1ccno1)[C@H](C(F)(F)F)CC2` [Example 9, (S)-2-((3R,5R)-3,5-Dimethylmorpholin-4-yl)-9-isoxazol-5-yl-methyl-8-trifluoromethyl-6,7,8,9-tetrahydro-pyrimido[1,2-a]-pyrimidin-4-one], the IC50 was below 10 nM.

Take `C[C@@H]1COCCN1c1cc(=O)n2c(n1)N(CC(=O)c1ccnc(Cl)c1)[C@H](C(F)(F)F)CC2` [Example 10, (S)-9-[2-(2-Chloro-pyridin-4-yl)-2-oxo-ethyl]-2-((R)-3-methyl-morpholin-4-yl)-8-trifluoromethyl-6,7,8,9-tetrahydro-pyrimido[1,2-a]-pyrimidin-4-one]: the IC50 was below 10 nM.

For `C[C@@H]1COCCN1c1cc(=O)n2c(n1)N(CC(=O)c1cccnc1)[C@H](C(F)(F)F)CC2` [Example 11, (S)-2-((R)-3-Methyl-morpholin-4-yl)-9-(2-oxo-2-pyridin-3-yl-ethyl)-8-trifluoromethyl-6,7,8,9-tetrahydro-pyrimido[1,2-a]-pyrimidin-4-one], the IC50 is below 10 nM.

`Cc1nocc1CN1c2nc(N3CCOC[C@H]3C)cc(=O)n2CC[C@H]1C(F)(F)F` [Example 12, (S)-9-(3-Methyl-isoxazol-4-ylmethyl)-2-((R)-3-methyl-morpholin-4-yl)-8-trifluoromethyl-6,7,8,9-tetrahydro-pyrimido[1,2-a]-pyrimidin-4-one]: the IC50 is below 10 nM.

Turning to `C[C@@H]1COCCN1c1cc(=O)n2c(n1)N(Cc1ncco1)CC[C@@H]2C(F)(F)F` [Example 13, (R)-2-((R)-3-Methyl-morpholin-4-yl)-9-oxazol-2-ylmethyl-6-trifluoromethyl-6,7,8,9-tetrahydro-pyrimido[1,2-a]-pyrimidin-4-one], the IC50 lay within 10 to 100 nM.

Regarding `CCOC(=O)CN1c2nc(N3CCOC[C@H]3C)cc(=O)n2CC[C@H]1C(F)(F)F` [Example 14, [(S)-8-((R)-3-Methyl-morpholin-4-yl)-6-oxo-2-trifluoromethyl-3,4-dihydro-2H,6H-pyrimido[1,2-a]-pyrimidin-1-yl]acetic acid ethyl ester], the IC50 was below 10 nM.

For `Cc1nc(CN2c3nc(N4CCOC[C@H]4C)c(F)c(=O)n3CC[C@H]2C(F)(F)F)no1` [Example 15, (S)-3-Fluoro-2-((R)-3-methylmorpholin-4-yl)-9-(5-methyl-[1,2,4]oxadiazol-3-yl-methyl)-8-trifluoromethyl-6,7,8,9-tetrahydro-pyrimido[1,2-a]-pyrimidin-4-one], the IC50 is below 10 nM.

In general, IC50 refers to the concentration that gives 50% inhibition.
